Laboratory results reported in patent US20230235378A1, “LZHEIMER'S DISEASE-SPECIFIC ALTERATIONS OF PROTEIN KINASE C EPSILON (PKC-EPSILON PROTEIN LEVELS” (WEST VIRGINIA UNIVERSITY BOARD OF GOVERNORS ON BEHALF OF …, priority 2010, published 2023).

Legend:
[1] = target: T1, PKCε (Homo sapiens, UniProt Q02156); test: Protein kinase C assay with recombinant PKC epsilon isoform ([γ32P]ATP, histones); type: biochemical; details: lowest concentration tested (10 nM)
T1 construct: purchased Calbiochem (San Diego, Calif.)
T1 sequence (Q02156 1-737): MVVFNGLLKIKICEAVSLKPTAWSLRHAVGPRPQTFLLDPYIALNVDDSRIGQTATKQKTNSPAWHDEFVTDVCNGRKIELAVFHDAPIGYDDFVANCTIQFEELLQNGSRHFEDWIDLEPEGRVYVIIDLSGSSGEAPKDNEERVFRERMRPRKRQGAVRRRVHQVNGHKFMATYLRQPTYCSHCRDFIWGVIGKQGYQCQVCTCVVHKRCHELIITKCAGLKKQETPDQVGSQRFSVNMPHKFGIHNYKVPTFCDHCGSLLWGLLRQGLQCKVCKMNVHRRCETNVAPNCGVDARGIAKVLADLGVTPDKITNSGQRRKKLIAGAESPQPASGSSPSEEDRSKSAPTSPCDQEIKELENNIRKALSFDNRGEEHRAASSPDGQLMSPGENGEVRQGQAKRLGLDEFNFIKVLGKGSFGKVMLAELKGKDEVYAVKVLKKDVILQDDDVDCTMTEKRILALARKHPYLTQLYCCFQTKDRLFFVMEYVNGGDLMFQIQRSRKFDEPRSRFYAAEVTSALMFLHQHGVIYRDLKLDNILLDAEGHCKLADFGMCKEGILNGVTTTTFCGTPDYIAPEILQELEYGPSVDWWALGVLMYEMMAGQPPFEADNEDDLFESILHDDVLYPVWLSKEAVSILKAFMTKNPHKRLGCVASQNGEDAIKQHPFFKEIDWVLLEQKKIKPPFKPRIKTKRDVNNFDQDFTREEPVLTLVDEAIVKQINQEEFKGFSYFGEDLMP
Protocol: (§1) Protein Kinase C Assay. Recombinant PKC (1 ng of alpha or epsilon isoform) was mixed with the BR-101 (DCP-LA) in the presence of 10 micromolar histones, 5 mM CaCl2, 1.2 μg/μl phosphatidyl-L-serine, 0.18 μg/μl 1,2-dioctanoyl-sn-glycerol (DAG), 10 mM MgCl2, 20 mM HEPES (pH 7.4), 0.8 mM EDTA, 4 mM EGTA, 4% glycerol, 8 μg/ml aprotinin, 8 μg/ml leupeptin, and 2 mM benzamidine. 0.5 micro Ci [γ32P]ATP was added. The incubation mixture was incubated for 15 min at 37 degrees in a total volume of 10 microliters. The reaction was stopped by spotting the reaction mixtures on 1×2 cm strips of cellulose phosphate paper (Whatman P81) and immediately washing twice for 1 hr in 0.5% H3PO4. The cellulose phosphate strips were counted in a scintillation counter. In some experiments, phosphatidylserine, diacylglycerol, and/or calcium were removed.

[2] = target: T2, PKCα (Homo sapiens, UniProt P17252); test: Protein kinase C assay with recombinant PKC alpha isoform ([γ32P]ATP, histones); type: biochemical; details: data not shown
T2 construct: purchased Calbiochem (San Diego, Calif.)
Protocol: as §1

[3] = target: T3, purified PKC (Homo sapiens, UniProt Q02156); test: PKC isozyme specificity: purified PKC preincubated with compound, activity measured radiometrically; type: biochemical; details: 10 μM; data not shown
T3 construct: purchased Calbiochem
T3 sequence (Q02156 1-737): T1 sequence (Q02156 1-737)
Protocol: (§2) Protein Kinase C Assay. Rat hippocampal cells were cultured and scraped in 0.2 ml homogenization buffer (20 mM Tris-HCl, pH 7.4, 50 mM NaF, 1 μg/ml leupeptin, and 0.1 mM PMSF) and homogenized by sonication in a Marsonix micro-probe sonicator (5 sec, 10 W). To measure PKC, 10 μl of cell homogenate or purified PKC isozyme (purchased from Calbiochem) was incubated for 15 min at 37° C. in the presence of 10 μM histones, 4.89 mM CaCl2, 1.2 μg/μl phosphatidyl-L-serine, 0.18 μg/μl 1,2-dioctanoyl-sn-glycerol, 10 mM MgCl2, 20 mM HEPES (pH 7.4), 0.8 mM EDTA, 4 mM EGTA, 4% glycerol, 8 μg/ml aprotinin, 8 μg/ml leupeptin, and 2 mM benzamidine. 0.5 μCi [γ-32P]ATP was added and 32P-phosphoprotein formation was measured by adsorption onto phosphocellulose as described previously. Nelson and Alkon, J. Neurochemistry. 1995; 65: 2350-57. For measurements of activation by BR-101 (DCP-LA) and similar compounds, PKC activity was measured in the absence of diacylglycerol and phosphatidylserine, as described by Kanno et al., and PKC δ, ε, η, and were measured in the absence of added EGTA and CaCl2, as described by Kanno et al., J. Lipid Res. 2006; 47: 1146-50. Low concentrations of Ca2+ are used because high Ca2+ interacts with the PKC phosphatidylserine binding site and prevents activation. For measurements of bryostatin activation, 1,2-diacylglycerol was omitted unless otherwise stated.
(§3) To determine their PKC isozyme specificity, the new compounds were preincubated with purified PKC for five minutes and the PKC activity was measured radiometrically.

[4] = test system: other PKC isoforms; test: PKC isozyme specificity: other PKC isoforms; type: biochemical; details: 10 μM; data not shown
Protocol: as §2, with “Low concentrations of Ca2+ are used because high Ca2+ interacts with the PKC phosphatidylserine binding site and prevents activation. For measurements of bryostatin activation, 1,2-diacylglycerol was omitted unless otherwise stated.” left out
as §3

[5] = Cell viability assay (alamar Blue and CyQuant staining); type: cell-based
Protocol: Aß Measurement and Cell Viability Assay. Aß was measured using an Aß 1-42 human fluorimetric ELISA kit (Invitrogen) according to the manufacturer's instructions. Results were measured in a Biotek Synergy HT microplate reader. AlamarBlue and CyQuant NF (Invitrogen) according to the manufacturer's instructions.

[6] = test system: Endothelin-converting enzyme (ECE); test: ECE assay in neuroblastoma cells (fluorimetric, McaBK2); type: cell-based, human; details: bryostatin 0.27 nM, BR-101 1 μM, BR-111 1
Protocol: ECE Assay. SH-5757 neuroblastoma cells were incubated with bryostatin (0.27 nM), BR-101 (DCP-LA) (1 μM), and BR-111 (DHA-CP6) (1 Endothelin-converting enzyme (ECE) was measured fluorimetrically using the method of Johnson and Ahn, Anal. Biochem. 2000; 286: 112-118. A sample of cell homogenate (20 μl) was incubated in 50 mM MES-KOH, pH 6.0, 0.01% C 12E10 (polyoxyethylene-10-lauryl ether), and 15 μM McaBK2 (7-Methoxycoumarin-4-acetyl [Ala7-(2,4-Dinitrophenyl)Lys9]-bradykinin trifluoroacetate salt) (Sigma-Aldrich). After 60 min at 37° C., the reaction was quenched by adding trifluoroacetic acid to 0.5%. The sample was diluted to 1.4 ml with water and the fluorescence was measured at ex=334 nm, em=398 nm.

CCCCCC1CC1CC1CC1CCCCCCCC(=O)O (stereo not drawn) [BR-101, 8-[2-(2-pentyl-cyclopropylmethyl)-cyclopropyl]-octanoic acid]
activation of PKCε [1]: 2.75 fold
effect on PKCα [2]: not affected
activation of PKC [3]: effective activator
effects on the other PKC isoforms [4]: relatively small effects
effect on cell survival or proliferation [5]: no effect
change in ECE activity [6]: sustained increase
